Laboratory results from PubChem BioAssay AID1259408 (Genetic Toxicology Data Bank (GENE-TOX), 2018).
The source made the active and inactive calls. How the calls were made is not given here.

System: GENE-TOX genotoxicity assays, various organisms and cells
Experiment: GENE-TOX mutagenicity studies

CC(=O)O
mutagenic call (Species/Cell Type: Human lymphocytes, Assay Type: Sister-chromatid exchange (SCE) in vitro, Assay Code: SCL-, Evaluation Type: Evaluation A (Pre-1980)): inactive; negative
mutagenic call (Species/Cell Type: Human, Assay Type: Sister-chromatid exchange (SCE) in vitro, Assay Code: SC1-, Evaluation Type: Evaluation A (Pre-1980)): inactive; negative
mutagenic call (Species/Cell Type: Salmonella typhimurium (one or more of the five standard strains: TA98, TA100, TA1535, TA1537, and TA1538), Assay Type: Histidine reverse gene mutation, Ames assay, Assay Code: SAL-, Evaluation Type: Evaluation A (Pre-1980)): inactive; negative
mutagenic call (Species/Cell Type: Syrian hamster embryo (SA7/SHE) cells, Assay Type: Cell transformation, viral enhanced, Assay Code: CT7-, Evaluation Type: Evaluation A (Pre-1980)): inactive; negative

BrCC(Br)C(Br)CBr (configuration not stated)
mutagenic call (Species/Cell Type: Rodents, Sex: Male, Assay Type: Dominant lethal test, Assay Code: DLT-, Evaluation Type: Evaluation A (Pre-1980)): inactive; negative

CCNC(=O)Nc1ncc([N+](=O)[O-])s1
call (Species/Cell Type: Nonhuman, Assay Type: In vivo carcinogenicity studies, Assay Code: CCG+, Evaluation Type: Evaluation A (Pre-1980)): active; positive

CN=C(N)NC(=O)Nc1c(C)cccc1C
mutagenic call (Species/Cell Type: Mammalian polychromatic erythrocytes, Assay Type: Micronucleus test, chromosome aberrations, Assay Code: MNTT, Evaluation Type: Evaluation B (Post-1980)): no conclusion

N=c1ccc2nc3ccc(N)cc3sc-2c1
mutagenic call (Species/Cell Type: Bacillus subtilis (H17 vs M45), Assay Type: Rec-assay, spot test, DNA effects (bacterial DNA repair), Assay Code: REW-, Evaluation Type: Evaluation A (Pre-1980)): inactive; negative
mutagenic call (Species/Cell Type: Drosophila melanogaster, Assay Type: Sex-linked recessive lethal gene mutation, Assay Code: SRLT, Evaluation Type: Evaluation A (Pre-1980)): no conclusion
mutagenic call (Species/Cell Type: Saccharomyces cerevisiae, Assay Type: Mitotic recombination or gene conversion, Assay Code: YECT, Evaluation Type: Evaluation A (Pre-1980)): no conclusion

CN(N=O)C(=O)NC(N)=O
mutagenic call (Species/Cell Type: Arabidopsis species, Assay Type: Gene mutation, Assay Code: ARM+D, Dose Response: With dose response, Evaluation Type: Evaluation A (Pre-1980)): active; positive

O=C(O)c1cc(I)cc(I)c1I
mutagenic call (Species/Cell Type: Hordeum vulgare (barley), Assay Type: Chromosome aberrations, Assay Code: HOC+, Evaluation Type: Evaluation A (Pre-1980)): active; positive
